Experimental data: BindingDB's records for doi:10.1074/jbc.M209367200 (University of Padova, 2003)

Biological target: Casein kinase II subunit alpha (Zea mays, UniProt P28523)
Experiment: Kinase Inhibition Assay
Settings: pH 7.5; 22 °C
Procedure: In vitro kinase assay using purified enzyme, was incubated at room temperature with substrate, and test compounds in the presence of 100 uM ATP/ [gamma-33P] ATP. 33P incorporation was measured with scintillation counter. IC50 values were calculated from dose-response curves; from these calculated apparent inhibition constants (Ki) were obtained using the Cheng-Prusoff equation: Ki = IC50/ (1 + ([ATP]/Km)).

Casein kinase II subunit alpha, sequence (P28523 whole entry): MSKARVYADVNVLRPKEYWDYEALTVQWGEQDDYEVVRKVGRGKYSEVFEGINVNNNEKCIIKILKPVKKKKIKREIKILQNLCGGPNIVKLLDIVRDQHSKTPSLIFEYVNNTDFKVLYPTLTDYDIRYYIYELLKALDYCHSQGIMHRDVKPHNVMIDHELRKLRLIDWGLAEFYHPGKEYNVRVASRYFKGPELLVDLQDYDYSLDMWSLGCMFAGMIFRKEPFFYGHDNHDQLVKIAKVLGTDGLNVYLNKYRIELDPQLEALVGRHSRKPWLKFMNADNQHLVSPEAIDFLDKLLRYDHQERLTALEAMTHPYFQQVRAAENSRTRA

Row | Ki [µM] | Structure (SMILES)
1 | > 40 | O=C1c2cccc(O)c2C(=O)c2c(O)cccc21 [1,8-dihydroxy-anthraquinone]
2 | > 40 | O=c1c2c(O)cccc2oc2cccc(O)c12 [1,8-dihydroxy-9H-xanthen-9-one]
